This assay concerns the target T1, purified pig brain-derived tubulin (Sus scrofa, UniProt P02550+P02554).
T1 construct: purified pig brain-derived tubulin (final concentration: 2 mg/mL); purchased Cytoskeleton, Inc. (Denver, Colo., USA); host or cells: pig brain (tissue-purified)
In words: Example 7: fluorescence-based assay of tubulin polymerization reaction. In kind it is biochemical. As to the method:
S-nitroso-N-acetyl-D,L-penicillamine (SNAP), which is a NO donor, was purchased from Cayman Chemical Co. (Ann Arbor, Mich., USA) and used. A tubulin polymerization analysis kit was purchased from Cytoskeleton, Inc. (Denver, Colo., USA) and used. For paclitaxel, a paclitaxel included in the analysis kit was used as paclitaxel. Docetaxel was purchased from Sigma-Aldrich Co. (St. Louis, Mo., USA) and was used as docetaxel.
A fluorescence-based assay of tubulin polymerization reaction was carried out according to the manufacturer's instruction of the kit. That is, purified pig brain-derived tubulin (final concentration: 2 mg/mL) and SNAP (final concentration: 200 or 500 μmol/L) were incubated at room temperature for 15 minutes or longer in the buffer solution included in the kit. Subsequently, paclitaxel (final concentration: 3 μmmol/L) or docetaxel (final concentration: 1 μmol/L), and […] (final concentration: 1 mmol/L) were added to this buffer mixture, and then was incubated for 60 minutes at 37° C. During this incubation, the fluorescence intensity (measurement wavelength: excitation 350 nm/fluorescence 435 nm) was measured every one minute by using a microplate reader (Spectramax, Molecular Devices, LLC, Sunnyvale, Calif., USA). The value of fluorescence intensity was expressed as a percentage relative to the SNAP and taxane-untreated group by using the value obtained 60 minutes after the initiation of the reaction, which corresponded to the equilibrium steady-state phase, and the average value for three experiments was taken as the value.
The results are expressed as the mean value (Mean)±standard error (SEM) of five independent experiments. A comparison between a paclitaxel- or docetaxel-treated group and an untreated group was carried out by an unpaired statistical test (Student's t-test) of the difference between two groups. A comparison between a SNAP-untreated group (control group) and SNAP-treated groups (200 μmol/L and 500 μmol/L) in the presence or absence of the taxane-family drugs was carried out by Dunnett's multiple comparison test. A difference value of less than 5% was considered to be statistically significant. For the data processing, Graphpad Prism version 5.03 was used.

The mark [1] stands for this setting: SNAP 200 or 500 μmol/L, 60 minutes.

T1 sequence (P02554 whole entry): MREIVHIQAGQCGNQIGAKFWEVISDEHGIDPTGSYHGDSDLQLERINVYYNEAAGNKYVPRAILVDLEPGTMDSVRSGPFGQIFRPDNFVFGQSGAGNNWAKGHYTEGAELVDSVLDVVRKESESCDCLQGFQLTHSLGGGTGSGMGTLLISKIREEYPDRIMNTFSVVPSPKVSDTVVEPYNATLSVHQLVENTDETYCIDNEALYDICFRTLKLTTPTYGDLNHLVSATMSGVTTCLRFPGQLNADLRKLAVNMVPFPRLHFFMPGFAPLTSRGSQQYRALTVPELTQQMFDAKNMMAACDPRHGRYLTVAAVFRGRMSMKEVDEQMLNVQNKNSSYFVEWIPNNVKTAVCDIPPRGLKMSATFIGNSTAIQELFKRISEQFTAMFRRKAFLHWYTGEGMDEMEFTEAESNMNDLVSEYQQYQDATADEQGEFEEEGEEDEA
T1 sequence (P02550 whole entry): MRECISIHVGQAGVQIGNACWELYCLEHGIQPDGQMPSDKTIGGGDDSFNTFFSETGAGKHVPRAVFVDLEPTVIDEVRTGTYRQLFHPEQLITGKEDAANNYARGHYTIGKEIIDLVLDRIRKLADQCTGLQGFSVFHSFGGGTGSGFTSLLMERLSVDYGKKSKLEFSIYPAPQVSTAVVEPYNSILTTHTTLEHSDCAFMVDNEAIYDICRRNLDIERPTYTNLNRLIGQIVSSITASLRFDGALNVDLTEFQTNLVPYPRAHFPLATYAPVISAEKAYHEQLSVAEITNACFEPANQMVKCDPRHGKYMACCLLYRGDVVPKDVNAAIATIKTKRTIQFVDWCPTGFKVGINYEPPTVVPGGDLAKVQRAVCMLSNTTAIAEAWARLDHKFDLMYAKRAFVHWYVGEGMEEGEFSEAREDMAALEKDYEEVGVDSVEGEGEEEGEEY

As for `CC(=O)NC(C(=O)O)C(C)(C)SN=O` (racemic) [SNAP, S-nitroso-N-acetyl-D,L-penicillamine], the “action of SNAP on the spontaneous tubulin polymerization reaction” value (SNAP 200 or 500 μmol/L, absence of taxanes, 60 minutes) was “significantly suppressed”. Moreover, under setting [1], the “action of SNAP on the tubulin polymerization reaction promoted by docetaxel” value is “significantly suppressed” and the “action of SNAP on the tubulin polymerization reaction promoted by paclitaxel” value is reported as “significantly suppressed”.
Regarding `CC(=O)O[C@@]12CO[C@@H]1C[C@H](O)[C@@]1(C)C(=O)[C@H](O)C3=C(C)[C@@H](OC(=O)[C@H](O)[C@@H](NC(=O)OC(C)(C)C)c4ccccc4)C[C@@](O)([C@@H](OC(=O)c4ccccc4)[C@H]21)C3(C)C` [docetaxel], the “tubulin polymerization (fluorescence intensity) as compared with the taxane-untreated group” value (docetaxel final concentration 1 μmol/L, 60 minutes after initiation, P<0.001) was 184.1%.

The values are drawn from patent publication US20140066385A1, “METHOD FOR TREATING CANCER BY COMBINED USE OF DRUGS” (Astellas Pharma Inc., priority 2011, published 2014).
